According to ChEMBL document CHEMBL1201862, “PubChem BioAssay data set” (2004):
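Method: 48-hour compound exposure of cells in 96-well plates, five concentrations, linear interpolation of endpoints. GI50 marks 50% less growth.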 Active and inactive are the calls of the source. Cut-off read from the data, not from the text of the source: active = GI50 up to about 1.1 µM and inactive = higher.

What was measured:
Assay in all cases: DTP human tumour cell line panel, 48 h
LOX IMVI = tested on: LOX IMVI
A498 = tested on: A498
UACC-257 = tested on: UACC-257
NCI-H522 = tested on: NCI-H522
HCT-15 = tested on: HCT-15
SK-OV-3 = tested on: SK-OV-3
OVCAR-3 = tested on: OVCAR-3
SR = tested on: SR
Malme-3M = tested on: Malme-3M
HOP-62 = tested on: HOP-62
SK-MEL-2 = tested on: SK-MEL-2
IGROV-1 = tested on: IGROV-1
HL-60 = tested on: HL-60
COLO 205 = tested on: COLO 205
KM12 = tested on: KM12
CCRF-CEM = tested on: CCRF-CEM
RXF 393 = tested on: RXF 393

| SMILES | GI50 (LOX IMVI) | GI50 (A498) | GI50 (UACC-257) | GI50 (NCI-H522) | GI50 (HCT-15) | GI50 (SK-OV-3) | GI50 (OVCAR-3) | GI50 (SR) | GI50 (Malme-3M) | GI50 (HOP-62) | GI50 (SK-MEL-2) | GI50 (IGROV-1) | GI50 (HL-60) | GI50 (COLO 205) | GI50 (KM12) | GI50 (CCRF-CEM) | GI50 (RXF 393) |
| --- | --- | --- | --- | --- | --- | --- | --- | --- | --- | --- | --- | --- | --- | --- | --- | --- | --- |
| O=[N+]([O-])c1ccc2nc(/C(=N/Nc3ccccc3)C(O)c3ccc(Cl)cc3Cl)c(O)nc2c1 (configuration not stated) | > 100 µM (inactive) | > 100 µM (inactive) | > 100 µM (inactive) | 15.9 µM (inactive) | > 100 µM | > 100 µM (inactive) | > 100 µM (inactive) | 29.6 µM (inactive) | > 100 µM (inactive) | > 100 µM (inactive) | > 100 µM (inactive) | > 100 µM (inactive) | 21 µM (inactive) | 38.9 µM (inactive) | 49.3 µM (inactive) | 22.3 µM (inactive) | > 100 µM (inactive) |
| COc1ccc(OC2(c3cc(OC)ccc3OC)OC(=O)c3ccccc32)cc1 (configuration not stated) | > 100 µM (inactive) | > 100 µM (inactive) | > 100 µM (inactive) | > 100 µM (inactive) | > 100 µM | > 100 µM (inactive) | > 100 µM (inactive) | > 100 µM (inactive) | > 100 µM (inactive) | > 100 µM (inactive) | > 100 µM (inactive) | > 100 µM (inactive) | > 100 µM (inactive) | > 100 µM (inactive) | > 100 µM (inactive) | > 100 µM (inactive) | > 100 µM (inactive) |
| COc1cc(C2c3cc4c(cc3[C@@H](OCCN)[C@H]3COC(=O)C23)OCO4)cc(OC)c1O (some centres not stated) | 0.0434 µM (active) | 0.212 µM (active) | 1.24 µM (inactive) | 0.155 µM (active) | 2.87 µM | 0.129 µM (active) | 1.27 µM (inactive) | < 0.0191 µM (active) | 0.136 µM (active) | 0.069 µM (active) | 0.322 µM (active) | 1.15 µM (inactive) | < 0.01 µM (active) | 1.7 µM (inactive) | 0.491 µM (active) | 0.0316 µM (active) | 0.44 µM (active) |
| COc1ccc(-c2cc(=O)c3c(O)c(O)c(OC)cc3o2)cc1O | > 100 µM (inactive) | > 100 µM (inactive) | > 100 µM (inactive) | 53.5 µM (inactive) | > 100 µM | > 100 µM (inactive) | > 100 µM (inactive) | 44.5 µM (inactive) | > 100 µM (inactive) | > 100 µM (inactive) | > 100 µM (inactive) | > 100 µM (inactive) | > 100 µM (inactive) | > 100 µM (inactive) | > 100 µM (inactive) | > 100 µM (inactive) | > 100 µM (inactive) |
| CC1=C2C(=CC(C)(C)[C@@H]2O)C(=O)[C@](C)(O)C12CC2 [ILLUDIN M] | 0.0172 µM (active) | 0.0206 µM (active) | 0.08 µM (active) | 0.0115 µM (active) | 0.0129 µM | 0.0197 µM (active) | < 0.0143 µM (active) | 0.01 µM (active) | 0.022 µM (active) | 0.0185 µM (active) | 0.0134 µM (active) | 0.00989 µM (active) | 0.0156 µM (active) | 0.0243 µM (active) | 0.0284 µM (active) | 0.0168 µM (active) | 0.00329 µM (active) |
| COc1cc2c(c(OC)c1OC)C(=O)NCCC2 | > 100 µM (inactive) | > 100 µM (inactive) | > 100 µM (inactive) | > 100 µM (inactive) | > 100 µM | > 100 µM (inactive) | > 100 µM (inactive) | > 100 µM (inactive) | > 100 µM (inactive) | > 100 µM (inactive) | > 100 µM (inactive) | > 100 µM (inactive) | > 63.1 µM (inactive) | > 100 µM (inactive) | > 100 µM (inactive) | > 100 µM (inactive) | > 100 µM (inactive) |
